Source: patent publication US7371555B2, “Polypeptides having α-H-α-amino acid amide racemase activity and nucleic acids encoding the same” (DSM IP Assets B.V., priority 2002, dated 2008)

Tests used:
[1] = system: lyophilized O. anthropi IA cells; assay: α-H-α-amino acid amide racemase activity of lyophilized O. anthropi IA cells; format: biochemical, Ochrobactrum anthropi IA; settings: approximately 72 hours at 40° C., 10 times diluted reaction mixture
Experimental: O. anthropi IA cells were cultivated in Medium A containing DL-α-amino-ε-caprolactam (2 g/l) as sole nitrogen source. After incubation at 28° C. and 200 rpm for three days (OD620 nm=4.7), cells were harvested by centrifugation, washed in 20 mM HEPES-NaOH buffer of pH 7.7 and lyophilized.
The assay mixture consisted of 10 mM HEPES-NaOH buffer (pH 7.7) containing toluene (2,5 v/v %), pyridoxal-5-phosphate (20 μM), D- or L-leucine amide (2.5 m %) and in some cases EDTA (20 mM). Per assay 150 mg of lyophilized cells were used. Chemical blanks (with the assay mixture without the O. anthropi IA cells) were used as a negative control. All reaction mixtures (including the blanks) were incubated for approximately 72 hours at 40° C. before the reaction was stopped by the addition of 9 volumes of 1 M H3PO4. Finally, the reaction mixtures were analyzed by HPLC to determine the concentrations of D- and L-leucine amide and of D- and L-leucine. o-Phthaldehyde in combination with D-3-mercapto-2-methylpropionic acid was used in this HPLC method as a chiral reagent for the enantioseparation of these amino compounds (Duchateau, et al., J. Chromatogr. (1992) 623:237-245).
In a number of reactions EDTA was added to inhibit L- and/or D-specific amidase(s) present in the O. anthropi IA cells.
Without EDTA, amidases convert the substrate and/or product α-H-α-amino acid amides into α-H-α-amino acids thereby preventing direct detection of the other α-H-α-amino acid amide enantiomer as racemization product. […] Formation of L-leucine from D-leucine amide could not be detected in the chemical blank.

[2] = Stability of substrate in chemical blanks (HEPES-NaOH buffer without cells); format: physicochemical; settings: HEPES-NaOH buffer pH 7.7, 139 hours, concentration constant (0.7 w/w %)
Experimental: 1 ml Of disintegrated cells of each of the three strains was incubated in a HEPES-NaOH buffer (20 mM) pH 7.7, to which pyridoxal-5-phosphate (0.01 mM) was added as a cofactor and D-leucine amide (60.8 mM) as a substrate in a total volume of 10 ml (0.79 w/w % D-leucine amide). After 0 and 139 hours 1 ml samples were taken (of which the exact weight was measured) and the reaction in these samples was stopped by adding 1 ml methanol (of which the exact weight was measured too; to be able to calculate dilution factors). Stopped reaction mixtures were centrifuged to remove particulates. The supernatants were frozen at −86° C. until HPLC analysis according to the method given in Example 1. […]
From the table it can be seen that α-H-α-amino acid amide racemase activity is present in the disintegrated cells of Agrobacterium rhizogenes Na, Agrobacterium rhizogenes Bi and Arthrobacter nicotianae as D-leucine amide is converted into L-leucine; this conversion is not detected in the chemical blanks. In the chemical blanks no D-leucine or L-leucine could be detected even after 139 hours; the D-leucine amide concentration was constant (0.7 w/w %) meaning that D-leucine amide is very stable under the applied reaction conditions.

[3] = system: E. coli clones with plasmid encoded A. nicotianae NCIMB 41126 α-H-α-amino acid amide racemase activity; assay: Confirmation of potential positive clones of the A. nicotianae NCIMB 41126 gene library; format: cell-based, Arthrobacter nicotianae NCIMB 41126; settings: 70 mM substrate, 10 μM pyridoxal-5-phosphate, 20 h at 30° C.
Experimental: Of all 32 potential positive clones identified in the screening, material from the masterplates was used to inoculate 3 ml of liquid screening medium containing 50 mg/l kanamycin. After growth for 2 days at 30° C., cells were collected by centrifuging 2 ml of these cell cultures. Then the cell pellets were washed four times in 25 mM Tris-HCl buffer, pH 7.5. Subsequently, the cell pellets were resuspended in 100 μl substrate solution containing 70 mM of D-phenylalanine amide, or D-leucine amide, or D-valine amide in 50 mM Tris-HCl, pH 7.5 and 1 mM MnCl2. After incubation for 20 h at 30° C., the reactions were stopped by the addition of 100 μl of 0.15 M HCl, after which the reaction mixtures were analyzed by the HPLC method described in Example 1.
Confirmation of both potential positive clones was done according to the protocol given in Example 3, with the exception that all 3 substrate solutions used contained 10 μM of pyridoxal-5-phosphate.

[4] = system: α-H-α-amino acid amide racemase from Arthrobacter nicotianae NCIMB 41126; assay: Substrate specificity, CFE from E. coli DH10B/pAn(1)PLV36D06 (Example 9); format: biochemical; settings: relative to the activity towards D-leucine amide; 75 mM substrate, pH 8.0, 37° C.
Experimental: Preparation of the CFE of E. coli DH10B/pAn(1)PLV36D06 was performed as described in Example 7 for E. coli TOP10/pKEC_AZAR—3
Before applying the CFE from E. coli DH10B/pAn(1)PLV36D06 in the reactions with different enantiomerically pure α-H-α-amino acid amides to determine the substrate specificity of the A. nicotianae α-H-α-amino acid amide racemase, the E. coli amidases/aminopeptidases in this CFE were inhibited by a pre-treatment with an inhibitor cocktail. One tablet of Complete Mini Protease Inhibitor Cocktail (Roche Applied Science, Mannheim, Germany) was dissolved in 9 ml of the CFE followed by an incubation of 1 hour at room temperature. Next, reaction mixtures of 10 ml each (including the CFE) were prepared containing 50 mM HEPES-NaOH, pH 8.0, 20 μM pyridoxal-5-phosphate, 0.4 mg/ml BSA, 1 mM dithiothreitol and 75 mM of one of the amino acid amides tested. Reactions were started by the addition of 1 ml of the pre-treated CFE of E. coli DH10B/pAn(1)PLV36D06 or E. coli TOP10/pBAD/Myc-HisC (blank) and were incubated at 37° C. At regular time intervals samples of 1 ml were taken and transferred to vials containing 1 ml of 1M H3PO4 to stop the reaction. After sufficient dilution of the samples in 0.4 M borate buffer pH 9.4, the mixtures obtained were analyzed using HPLC to determine the exact concentrations of the two amino acid and two amino acid amide enantiomers according to the method of Example 7.

For `CC(C)C[C@@H](N)C(N)=O` [D-leucine amide], the D-leucine ([1]; with EDTA (20 mM)) was 0.007 m %, the D-leucine amide ([1]; with EDTA (20 mM)) was 0.24 m % and the L-leucine ([1]; with EDTA (20 mM)) was 0.008 m %. It also gave a L-leucine amide ([1]; with EDTA (20 mM)) of 0.032 m %, a D-leucine ([1]; without EDTA) of 0.015 m % and a D-leucine amide ([1]; without EDTA) of 0.22 m %. For the same compound, the L-leucine ([1]; without EDTA) was 0.044 m %, the L-leucine amide ([1]; without EDTA) was less than 0.001 m % and the “stability under the applied reaction conditions” value [2] was “very stable”. The “conversion of D-amide into L-acid” value [3] was “significantly converted” and the Rel. initial activity [4] was 100%.
